{"source": "patent US6673608B1", "about": "“Somatic embryogenic regeneration of Acacia mangium” (Institute of Molecular Agrobiology, priority 2002, dated 2004)", "key": {"[1]": {"system": "A. mangium immature embryo axes", "assay": "Embryogenic callus induction from immature embryo axes", "type": "cell-based, Acacia mangium", "conditions": "immature embryo axes on MS basal medium", "description": "One and half months old immature green pods were collected from twenty-meter high adult A. mangium Willd. trees at Science Park Drive of Singapore. Green seeds were gently isolated from pods and washed with sterile double deionized water (ddH2O) 4-5 times. After green seeds were surface sterilised with 30% market clorox bleach (NaClO) for 5 minutes and washed with sterile ddH2O 5 times, the seeds were sterilised again with 0.1% HgCl2 for 6 minutes and washed with sterile ddH2O 5 times. Seed coats were removed with sterilised forceps and embryos were isolated. Embryo axes (EA) (FIG. 1A) were gently separated with sterile forceps and used as explants for embryogenic callus induction.\nAll media were adjusted to pH 5.8 after autoclaving at 121° C. for 25 min. Plant growth regulators tested in experiments were added into media after autoclaving but other additional substances were added into media before autoclaving. All cultures were maintained under the warm white fluorescent lights at a range of irradiance of 23.41-26.01 μmol.s^−1m^−2, with 16 h photoperiod and at 28° C. […]"}, "globular somatic embryos": {"system": "globular somatic embryos", "assay": "Somatic embryo maturation (two-step maturation procedure)", "type": "cell-based, Acacia mangium", "conditions": "½ MS maturation media", "description": "All media were adjusted to pH 5.8 after autoclaving at 121° C. for 25 min. Plant growth regulators tested in experiments were added into media after autoclaving but other additional substances were added into media before autoclaving. All cultures were maintained under the warm white fluorescent lights at a range of irradiance of 23.41-26.01 μmol.s^−1m^−2, with 16 h photoperiod and at 28° C.\nGlobular embryos (FIGS. 1B-C) induced from induction medium containing IAA 0.25 mg/l and TDZ 2.0 mg/l (AM-304) were cultured on ½ MS basal medium supplemented with 0-5.0 mg/l of GA3, 30-50 g/l of sucrose, Vc 100 mg/l, Asn 150 mg/l, CH 100 mg/l, Gln 150 mg/l, Pro 150 mg/l, phytagel 0.35% (g/l), and activated charcoal 0.1% for thirty days. Somatic embryos were then transferred onto maturation medium AM-425 and cultured for 40 days. Cotyledon somatic embryos (mature somatic embryos) were then transferred onto the medium AM-424 for germination. Each experiment was repeated twice with a total of 250 globular somatic embryos for each medium combination. Seedlings were transferred to ½ MS basal medium containing sucrose 20 g/l as well as phytagel 0.35% and cultured for two months before being transferred to pot soil consisting of peat soil: sand (3:1). […]"}}}
{"smiles": "O=C(Nc1ccccc1)Nc1cnns1", "note": "[TDZ, 1-Phenyl-3-(1,2,3-thiadiazol-5-yl)Urea]", "values": [{"measurement": "embryogenic callus induction / somatic embryogenesis (result in words)", "setting": "[1]", "result": "effective to induce embryogenic callus"}]}
{"smiles": "C=C1C[C@]23C[C@@]1(O)CC[C@H]2[C@@]12C=C[C@H](O)[C@@](C)(C(=O)O1)[C@H]2[C@@H]3C(=O)O", "note": "[GA3, Gibberellic Acid]", "values": [{"measurement": "development of globular somatic embryos to torpedo and cotyledon stage (result in words)", "setting": "globular somatic embryos", "result": "promoted somatic embryo maturation"}]}
